# Target: recombinantly expressed human PARP-1 enzyme (Homo sapiens, UniProt P09874)
# Assay: PARP enzyme assay (half-maximum inhibitor concentration)
# Format: biochemical
# Conditions: DNA-activated PARP-1, 200 μM NAD, tritium-labeled NAD incorporation, room temperature, 1 hour, pH 8.0
# Protocol: Pharmacological Investigations PARP Enzyme Assay
# The half-maximum inhibitor concentration is determined by incubating the substances to be tested with the DNA-activated, recombinantly expressed and purified PARP-1 enzyme. Specifically, various concentrations of the test substance are incubated in 50 μl of reaction solution, which contains 50 mM Tris, 5 mM MgCl2, 1 mM DTT, 200 μM NAD, 0.1 mCi/ml tritium-labeled NAD, 0.1 mg/ml DNA, 0.1 mg/ml histones, 2 μg/ml recombinantly expressed human PARP-1 enzyme, pH=8.0, at room temperature for 1 hour. The reaction is stopped by adding 150 μl of 20% trichloroacetic acid, and the radiolabeled protein constituents are precipitated. After incubation on ice for 10 minutes, the labeled, insoluble constituents are separated off through a glass fiber filter and, after washing with 20% trichloroacetic acid three times, the radioactivity incorporated by the PARP-1 enzyme is measured by radioluminescence.
# IC-50 values were determined in this way for the following compounds: […]
# recombinantly expressed human PARP-1 enzyme, sequence (P09874 whole entry): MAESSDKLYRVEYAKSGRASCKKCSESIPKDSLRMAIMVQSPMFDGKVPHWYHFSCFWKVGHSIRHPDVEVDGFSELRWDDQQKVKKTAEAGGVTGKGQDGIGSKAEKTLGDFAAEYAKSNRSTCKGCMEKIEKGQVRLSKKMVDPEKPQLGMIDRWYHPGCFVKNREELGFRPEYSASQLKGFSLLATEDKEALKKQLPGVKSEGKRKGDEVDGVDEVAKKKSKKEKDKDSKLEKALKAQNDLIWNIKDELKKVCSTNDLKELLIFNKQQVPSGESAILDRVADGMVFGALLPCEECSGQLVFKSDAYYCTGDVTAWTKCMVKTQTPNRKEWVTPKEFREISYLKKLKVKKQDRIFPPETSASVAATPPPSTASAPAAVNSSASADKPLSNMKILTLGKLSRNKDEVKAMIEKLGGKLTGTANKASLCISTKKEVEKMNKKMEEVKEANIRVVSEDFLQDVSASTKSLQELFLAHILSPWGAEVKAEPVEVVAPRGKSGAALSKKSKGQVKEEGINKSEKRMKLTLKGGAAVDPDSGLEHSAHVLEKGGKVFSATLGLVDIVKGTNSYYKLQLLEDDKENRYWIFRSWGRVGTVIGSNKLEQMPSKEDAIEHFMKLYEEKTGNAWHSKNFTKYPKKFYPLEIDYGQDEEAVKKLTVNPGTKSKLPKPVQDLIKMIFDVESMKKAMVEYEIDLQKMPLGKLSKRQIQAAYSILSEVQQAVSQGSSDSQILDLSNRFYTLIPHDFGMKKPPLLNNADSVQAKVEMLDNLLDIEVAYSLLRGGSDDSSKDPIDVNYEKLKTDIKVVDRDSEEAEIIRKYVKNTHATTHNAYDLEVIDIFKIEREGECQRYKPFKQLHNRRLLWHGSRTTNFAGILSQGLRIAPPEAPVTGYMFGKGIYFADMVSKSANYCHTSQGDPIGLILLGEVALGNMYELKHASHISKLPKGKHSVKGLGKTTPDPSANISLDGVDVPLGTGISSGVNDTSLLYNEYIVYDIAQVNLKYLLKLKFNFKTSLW
row,SMILES,IC50 [nM]
1,"CC(C)CC(=O)NCc1ccc(-c2c[nH]c(=O)c3c2CCCC3)o1 [Example 81, 3-methyl-N-[5-(1-oxo-1,2,5,6,7,8-hexahydroisoquinolin-4-yl)furan-2-ylmethyl]butyramide]",1070
2,"O=C(NCc1ccc([N+](=O)[O-])cc1)c1cncc(-c2c[nH]c(=O)c3c2CCCC3)c1 [Example 28, N-(4-nitrobenzyl)-5-(1-oxo-1,2,5,6,7,8-hexahydroisoquinolin-4-yl)nicotinamide]",400
3,"O=c1[nH]cc(-c2ccc(CNCc3ccccn3)o2)c2c1CCCC2 [Example 62, 4-(5-{[(pyridin-2-ylmethyl)amino]-methyl}furan-2-yl)-5,6,7,8-tetrahydro-2H-isoquinolin-1-one]",1530
4,"COc1cccc(S(=O)(=O)NCc2ccc(-c3c[nH]c(=O)c4c3CCCC4)o2)c1 [Example 86, 3-methoxy-N-[5-(1-oxo-1,2,5,6,7,8-hexahydroisoquinolin-4-yl)furan-2-ylmethyl]benzenesulfonamide]",2480
5,"Cn1ccnc1CN(Cc1ccccc1)Cc1ccc(-c2c[nH]c(=O)c3c2CCCC3)o1 [Example 69, 4-(5-{[benzyl(1-methyl-1H-imidazol-2-ylmethyl)amino]-methyl}furan-2-yl)-5,6,7,8-tetrahydro-2H-isoquinolin-1-one]",2760
6,"Cc1[nH]c(=O)c2c(c1-c1ccc(CNCc3ccccc3)o1)CCCC2 [Example 51, 4-[5-(benzylaminomethyl)furan-2-yl]-3-methyl-5,6,7,8-tetrahydro-2H-isoquinolin-1-one]",590
7,"O=C(c1cncc(-c2c[nH]c(=O)c3c2CCCC3)c1)N1CCC(c2ccncc2)C1 (stereo not drawn) [Example 36, 4-[5-(3-pyridin-4-ylpyrrolidine-1-carbonyl)pyridin-3-yl]-5,6,7,8-tetrahydro-2H-isoquinolin-1-one]",420
8,"Cc1[nH]c(=O)c2c(c1Nc1cccc(C(=O)N(C)C)c1)CCCC2 [Example 13, N,N-dimethyl-3-(3-methyl-1-oxo-1,2,5,6,7,8-hexahydroisoquinolin-4-ylamino)benzamide]",80
9,"CS(=O)(=O)c1cccc(Nc2c[nH]c(=O)c3c2CCCC3)c1 [Example 6, 4-(3-methanesulfonylphenyl-amino)-5,6,7,8-tetrahydro-2H-isoquinolin-1-one]",800
10,"O=c1[nH]cc(Nc2cccc(CO)c2)c2c1CCCC2 [Example 8, 4-(3-hydroxymethylphenyl-amino)-5,6,7,8-tetrahydro-2H-isoquinolin-1-one]",610
11,"COc1cccc(CNC(=O)c2cncc(-c3c[nH]c(=O)c4c3CCCC4)c2)c1OC [Example 47, N-(2,3-dimethoxybenzyl)-5-(1-oxo-1,2,5,6,7,8-hexahydroisoquinolin-4-yl)nicotinamide]",3290
12,"CCOc1cccc(Nc2c[nH]c(=O)c3c2CCCC3)c1 [Example 11, 4-(3-ethoxyphenylamino)-5,6,7,8-tetrahydro-2H-isoquinolin-1-one]",390
13,"CN1CCN(CNCc2ccc(-c3c[nH]c(=O)c4c3CCCC4)o2)CC1 [Example 73, 4-(5-{[(4-methylpiperazin-1-ylmethyl)amino]methyl}furan-2-yl)-5,6,7,8-tetrahydro-2H-isoquinolin-1-one]",660
14,"O=c1[nH]cc(-c2ccc(CN3CCC(O)C3)o2)c2c1CCCC2 (stereo not drawn) [Example 63, 4-[5-(3-hydroxypyrrolidin-1-ylmethyl)furan-2-yl]-5,6,7,8-tetrahydro-2H-isoquinolin-1-one]",240
15,"O=c1[nH]cc(-c2ccc(CNCc3ccncc3)o2)c2c1CCCC2 [Example 58, 4-(5-{[(pyridin-4-ylmethyl)amino]-methyl}furan-2-yl)-5,6,7,8-tetrahydro-2H-isoquinolin-1-one]",1270
16,"CC(=O)Nc1ccc(S(=O)(=O)NCc2ccc(-c3c[nH]c(=O)c4c3CCCC4)o2)cc1 [Example 87, N-(4-{[5-(1-oxo-1,2,5,6,7,8-hexahydroisoquinolin-4-yl)furan-2-ylmethyl]sulfamoyl}phenyl)acetamide]",3770
17,"O=C(NCc1ccc(-c2c[nH]c(=O)c3c2CCCC3)o1)c1ccco1 [Example 82, N-[5-(1-oxo-1,2,5,6,7,8-hexahydroisoquinolin-4-yl)furan-2-ylmethyl]furan-2-carboxamide]",460
18,"O=C(NCc1ccncc1)c1cncc(-c2c[nH]c(=O)c3c2CCCC3)c1 [Example 48, 5-(1-oxo-1,2,5,6,7,8-hexahydroisoquinolin-4-yl)-N-pyridin-4-ylmethylnicotinamide]",3070
19,"O=c1[nH]cc(-c2ccc(CNCCN3CCCC3)o2)c2c1CCCC2 [Example 57, 4-{5-[(2-pyrrolidin-1-ylethylamino)-methyl]furan-2-yl}-5,6,7,8-tetrahydro-2H-isoquinolin-1-one]",420
20,"Cc1[nH]c(=O)c2c(c1-c1ccc(CNCc3cnn(C)c3)o1)CCCC2 [Example 52, 3-methyl-4-(5-{[(1-methyl-1H-pyrazol-4-ylmethyl)amino]methyl}-furan-2-yl)-5,6,7,8-tetrahydro-2H-isoquinolin-1-one]",330

row,SMILES,IC50 [nM]
1,"O=C(NCCc1ccncc1)c1cncc(-c2c[nH]c(=O)c3c2CCCC3)c1 [Example 43, 5-(1-oxo-1,2,5,6,7,8-hexahydroisoquinolin-4-yl)-N-(2-pyridin-4-ylethyl)nicotinamide]",820
2,"Cc1[nH]c(=O)c2c(c1-c1cccs1)CCCC2 [Example 18, 3-methyl-4-thiophen-2-yl-5,6,7,8-tetrahydro-2H-isoquinolin-1-one]",380
3,"Cc1[nH]c(=O)c2c(c1Nc1cccc(OC(F)(F)F)c1)CCCC2 [Example 14, 3-methyl-4-(3-trifluoromethoxy-phenylamino)-5,6,7,8-tetrahydro-2H-isoquinolin-1-one]",1210
4,"COc1ccccc1CNC(=O)c1cncc(-c2c[nH]c(=O)c3c2CCCC3)c1 [Example 46, N-(2-methoxybenzyl)-5-(1-oxo-1,2,5,6,7,8-hexahydroisoquinolin-4-yl)nicotinamide]",3130
5,"Cc1[nH]c(=O)c2c(c1Nc1cccc(S(C)(=O)=O)c1)CCCC2 [Example 7, 4-(3-methanesulfonylphenyl-amino)-3-methyl-5,6,7,8-tetrahydro-2H-isoquinolin-1-one]",300
6,"O=c1[nH]cc(Nc2ccc(Cl)nc2)c2c1CCCC2 [Example 12, 4-(6-chloropyridin-3-ylamino)-5,6,7,8-tetrahydro-2H-isoquinolin-1-one]",670
7,"O=C(NCC1CC(c2ccccc2)=NO1)c1cncc(-c2c[nH]c(=O)c3c2CCCC3)c1 (stereo not drawn) [Example 41, 5-(1-oxo-1,2,5,6,7,8-hexahydroisoquinolin-4-yl)-N-(3-phenyl-4,5-dihydroisoxazol-5-ylmethyl)-nicotinamide]",3850
8,"O=C(NCCc1ccccc1)c1cncc(-c2c[nH]c(=O)c3c2CCCC3)c1 [Example 27, 5-(1-oxo-1,2,5,6,7,8-hexahydroisoquinolin-4-yl)-N-phenethyl-nicotinamide]",2540
9,"CNC(=O)c1cccc(Nc2c[nH]c(=O)c3c2CCCC3)c1 [Example 2, N-methyl-3-(1-oxo-1,2,5,6,7,8-hexahydroisoquinolin-4-ylamino)-benzamide]",270
10,"CC(=O)Nc1ccc(CNC(=O)c2cncc(-c3c[nH]c(=O)c4c3CCCC4)c2)cc1 [Example 37, N-(4-acetylaminobenzyl)-5-(1-oxo-1,2,5,6,7,8-hexahydroisoquinolin-4-yl)nicotinamide]",4070
11,"Cn1cc(CNCc2ccc(-c3c[nH]c(=O)c4c3CCCC4)o2)cn1 [Example 77, 4-(5-{[(1-methyl-1H-pyrazol-4-ylmethyl)amino]methyl}furan-2-yl)-5,6,7,8-tetrahydro-2H-isoquinolin-1-one]",180
12,"CC(=O)Nc1cccc(Nc2c[nH]c(=O)c3c2CCCC3)c1 [Example 5, N-[3-(1-oxo-1,2,5,6,7,8-hexahydroisoquinolin-4-ylamino)-phenyl]acetamide]",390
13,"O=C(NCCc1cccnc1)c1cncc(-c2c[nH]c(=O)c3c2CCCC3)c1 [Example 40, 5-(1-oxo-1,2,5,6,7,8-hexahydroisoquinolin-4-yl)-N-(2-pyridin-3-ylethyl)nicotinamide]",4690
14,"COc1cccc(CNC(=O)c2cncc(-c3c[nH]c(=O)c4c3CCCC4)c2)c1 [Example 45, N-(3-methoxybenzyl)-5-(1-oxo-1,2,5,6,7,8-hexahydroisoquinolin-4-yl)nicotinamide]",1700
15,"CN(C)CCNCc1ccc(-c2c[nH]c(=O)c3c2CCCC3)o1 [Example 65, 4-{5-[(2-dimethylaminoethyl-amino)methyl]furan-2-yl}-5,6,7,8-tetrahydro-2H-isoquinolin-1-one]",460
16,"CCCCNCc1ccc(-c2c(C)[nH]c(=O)c3c2CCCC3)o1 [Example 53, 4-(5-butylaminomethylfuran-2-yl)-3-methyl-5,6,7,8-tetrahydro-2H-isoquinolin-1-one]",240
17,"CC(=O)Nc1ccc(CNCc2ccc(-c3c[nH]c(=O)c4c3CCCC4)o2)cc1 [Example 75, N-[4-({[5-(1-oxo-1,2,5,6,7,8-hexahydroisoquinolin-4-yl)furan-2-ylmethyl]amino}methyl)phenyl]-acetamide]",510
18,"O=c1[nH]cc(-c2ccc(CN3CCN(c4ncccn4)CC3)o2)c2c1CCCC2 [Example 56, 4-[5-(4-pyrimidin-2-ylpiperazin-1-ylmethyl)furan-2-yl]-5,6,7,8-tetrahydro-2H-isoquinolin-1-one]",1450
19,"O=C(c1cccc(Nc2c[nH]c(=O)c3c2CCCC3)c1)N1CCCC1 [Example 21, 4-[3-(Pyrrolidin-1-carbonyl)phenylamino]-5,6,7,8-tetrahydro-2H-isoquinolin-1-one]",10600

# Source: patent US7795278B2 (sanofi-aventis Deutschland GmbH, priority 2004, dated 2010)
